Measurements published in ChEMBL document CHEMBL4616697, “Discovery of Adamantane Carboxamides as Ebola Virus Cell Entry and Glycoprotein Inhibitors” (ACS Med Chem Lett, 2020).
pEC50: −log10 of the molar value.

Legend:
[1] = Kinetic aqueous solubility of compound in PBS at pH 6.4 to 7.5 measured after 2 hrs by spectrophotometry analysis; type: physicochemical; settings: read-out: Kinetic_solubility
[2] = Inhibition of glycoprotein in VSV pseudotyped Ebolavirus infected in African green monkey Vero cells assessed as reduction in virus entry incubated for 24 hrs by luciferase reporter gene assay; type: cell-based
[3] = Metabolic stability in human liver microsomes assessed as parent compound remaining at 1 uM pretreated for 30 mins followed by NADPH addition and measured after 60 mins by LC-MS/MS analysis; type: ADME, Microsome; settings: for remaining at 1 h, 1 µM: liver microsomes, read-out: Stability; for Stability: microsomes, 1 h, 1 µM
[4] = system: Ebolavirus; assay: Antiviral activity against wild type Ebolavirus infected in African green monkey Vero cells assessed as reduction in plaque forming units incubated for 10 days by crystal violet staining based assay; type: functional, organism-based; settings: Orthoebolavirus, 240 h
[5] = Metabolic stability in guinea pig liver microsomes assessed as parent compound remaining at 1 uM pretreated for 30 mins followed by NADPH addition and measured after 60 mins by LC-MS/MS analysis; type: ADME, Cavia porcellus, Microsome; settings: read-out: Stability
[6] = Metabolic stability in rat liver microsomes assessed as parent compound remaining at 1 uM pretreated for 30 mins followed by NADPH addition and measured after 60 mins by LC-MS/MS analysis; type: ADME, Microsome; settings: read-out: Stability
[7] = Metabolic stability in Cynomolgus monkey liver microsomes assessed as parent compound remaining at 1 uM pretreated for 30 mins followed by NADPH addition and measured after 60 mins by LC-MS/MS analysis; type: ADME, Macaca fascicularis, Microsome; settings: read-out: Stability
[8] = Selectivity index, ratio of CC50 for African green monkey Vero E6 cells assessed as reduction in cell viability incubated for 10 days by neutral red dye based spectrophotometry analysis to EC50 for wild type Ebolavirus infected in African green monkey Vero cells assessed as reduction in plaque forming units incubated for 10 days by crystal violet staining based assay; type: toxicity, Vero C1008; settings: read-out: Ratio CC50/EC50
[9] = Cytotoxicity against African green monkey Vero E6 cells assessed as reduction in cell viability incubated for 10 days by neutral red dye based spectrophotometry analysis; design: species or system Vero C1008; settings: chlorocebus sabaeus
[10] = Metabolic stability in mouse liver microsomes assessed as parent compound remaining at 1 uM pretreated for 30 mins followed by NADPH addition and measured after 60 mins by LC-MS/MS analysis; type: ADME, Microsome; settings: read-out: Stability
[11] = Metabolic stability in dog liver microsomes assessed as parent compound remaining at 1 uM pretreated for 30 mins followed by NADPH addition and measured after 60 mins by LC-MS/MS analysis; type: ADME, Canis lupus familiaris, Microsome; settings: read-out: Stability
[12] = Aqueous solubility of compound in PBS at pH 7.4 measured after 2 hrs by spectrophotometry analysis; type: physicochemical
[13] = system: Ebolavirus; assay: Antiviral activity against wild type Ebolavirus infected in African green monkey Vero E6 cells assessed as inhibition of viral entry compound treated with primary viral infected cells for 60 mins and after 3 days post-infection measured following 10 days of compound incubation with fresh cells infected with primary culture supernatants by virus yield reduction assay; type: functional; settings: Orthoebolavirus, Vero C1008
[14] = Selectivity index, ratio of CC50 for African green monkey Vero E6 cells assessed as reduction in cell viability incubated for 10 days by neutral red dye based spectrophotometry analysis to EC90 for wild type Ebolavirus infected in African green monkey Vero E6 cells assessed as reduction in viral replication by virus yield reduction assay; type: toxicity, Vero C1008; settings: read-out: Selectivity Index

## O=C(NC1CCNCC1)C1C2CC3CC1CC(c1ccccc1)(C3)C2 (stereo not drawn)
[1]
  solubility kinetic at 2 h: > 100 µM
[2]; Orthoebolavirus, Vero, 24 h
  pEC50: 6.74

## CC12CC3CC(C(=O)N4CCC(N)CC4)(C1)CC(c1ccccc1)(C3)C2 (racemic)
[1]
  solubility kinetic at 2 h: > 100 µM
[2]; Orthoebolavirus, Vero, 24 h
  pEC50: 7.29
[3]
  remaining at 1 h, 1 µM: 81%

## CC12CC3CC(C(=O)N4CCNCC4)(C1)CC(c1ccccc1)(C3)C2 (racemic)
[1]
  solubility kinetic at 2 h: > 100 µM
[2]; Orthoebolavirus, Vero, 24 h
  pEC50: 6.89
[3]
  remaining at 1 h, 1 µM: 100%

## CCC12CC3CC(C(=O)N[C@H]4CC[C@H](N)CC4)(C1)CC(c1ccccc1)(C3)C2 (stereo in doubt; 42)
[4]
  pEC50: 6.85
[5]
  remaining at 1 h, 1 µM: 36%
[6]
  remaining at 1 h, 1 µM: 46%
[7]
  remaining at 1 h, 1 µM: 60%
[8]
  selectivity ratio at 240 h: 221
[9]
  CC50 at 240 h: 31000 nM
[10]
  remaining at 1 h, 1 µM: 60%
[2]; vero
  pEC50: 7.92
[11]
  remaining at 1 h, 1 µM: 77%
[3]
  Stability: 65%
[12]
  solubility at 2 h: > 20 mg/mL

## O=C(NC1CCNCC1)C12CC3CC(C1)CC(c1ccc(O)cc1)(C3)C2
[1]
  solubility kinetic at 2 h: > 100 µM
[2]; Orthoebolavirus, Vero, 24 h
  pEC50: 5.77

## O=C(NC1CCNCC1)C12CC3CC(C1)CC(c1ccccc1)(C3)C2
[1]
  solubility kinetic at 2 h: > 100 µM
[2]; Orthoebolavirus, Vero, 24 h
  pEC50: 7.14

## CC12CC3CC(C(=O)N[C@H]4CC[C@H](N)CC4)(C1)CC(c1ccccc1)(C3)C2 (mixture of isomers)
[1]
  solubility kinetic at 2 h: > 100 µM
[2]; vero
  pEC50: 7.51
[3]
  remaining at 1 h, 1 µM: 92%

## CC12CC3CC(C(=O)NC4CC5(CC(N)C5)C4)(C1)CC(c1ccccc1)(C3)C2 (racemic)
[1]
  solubility kinetic at 2 h: > 100 µM
[2]; Orthoebolavirus, Vero, 24 h
  pEC50: 7.40
[3]
  remaining at 1 h, 1 µM: 79%

## C[C@@]12C[C@H]3C[C@@](C(=O)NC4CCNCC4)(C1)C[C@](c1ccccc1)(C3)C2
[2]; vero
  pEC50: 6.62

## c1ccc(C23CC4CC(CC(CNC5CCNCC5)(C4)C2)C3)cc1
[1]
  solubility kinetic at 2 h: > 100 µM
[2]; Orthoebolavirus, Vero, 24 h
  pEC50: 6.33

## NC1CCN(C(=O)C23CC4CC(C2)CC(c2ccccc2)(C4)C3)CC1
[1]
  solubility kinetic at 2 h: > 100 µM
[2]; Orthoebolavirus, Vero, 24 h
  pEC50: 6.92

## O=C(NC1CCN(Cc2ccccc2)CC1)C12CC3CC(C1)CC(c1ccccc1)(C3)C2
[1]
  solubility kinetic at 2 h: > 100 µM
[2]; Orthoebolavirus, Vero, 24 h
  pEC50: 6.42

## CC12CC3CC(C(=O)N[C@@H]4CCNC[C@H]4F)(C1)CC(c1ccccc1)(C3)C2 (mixture of isomers)
[1]
  solubility kinetic at 2 h: > 100 µM
[2]; Orthoebolavirus, Vero, 24 h
  pEC50: 7.48
[3]
  remaining at 1 h, 1 µM: 60%

## CCC12CC3CC(C(=O)N[C@H]4CC[C@H](N)CC4)(C1)CC(c1ccccc1)(C3)C2 (stereo in doubt; 43)
[2]; vero
  pEC50: 6.46

## O=C(NC1CCNCC1)C12CC3CC1CC(c1ccccc1)(C3)C2 (stereo not drawn)
[1]
  solubility kinetic at 2 h: > 100 µM
[2]; Orthoebolavirus, Vero, 24 h
  pEC50: 6.48

## CN1CCC(N(C)C(=O)C23CC4CC(C2)CC(c2ccccc2)(C4)C3)CC1
[1]
  solubility kinetic at 2 h: > 100 µM
[2]; Orthoebolavirus, Vero, 24 h
  pEC50: 6.55

## O=C(NC1CCNCC1)C12CC3CC(C1)CC(c1ccc([N+](=O)[O-])cc1)(C3)C2
[1]
  solubility kinetic at 2 h: > 100 µM
[2]; Orthoebolavirus, Vero, 24 h
  pEC50: < 5.52

## CCC12CC3CC(C(=O)N[C@H]4CC[C@H](N)CC4)(C1)CC(c1ccccc1)(C3)C2 (mixture of isomers)
[1]
  solubility kinetic at 2 h: > 100 µM
[2]; vero
  pEC50: 8.00
[3]
  remaining at 1 h, 1 µM: 71%

## O=C(N1CCNCC1)C12CC3CC(C1)CC(c1ccccc1)(C3)C2
[1]
  solubility kinetic at 2 h: > 100 µM
[2]; Orthoebolavirus, Vero, 24 h
  pEC50: 6.59

## CC12CC3(C)CC(C(=O)NC4CCNCC4)(C1)CC(c1ccccc1)(C2)C3
[1]
  solubility kinetic at 2 h: > 100 µM
[2]; Orthoebolavirus, Vero, 24 h
  pEC50: 6.49

## CCC12CC3CC(C(=O)NC4CCNCC4)(C1)CC(c1ccccc1)(C3)C2 (racemic)
[1]
  solubility kinetic at 2 h: > 100 µM
[2]; Orthoebolavirus, Vero, 24 h
  pEC50: 7.70
[3]
  remaining at 1 h, 1 µM: 69%

## CC12CC3CC(C(=O)N[C@H]4CC[C@H](CN)CC4)(C1)CC(c1ccccc1)(C3)C2 (stereo in doubt; 40)
[4]
  pEC50: 6.37
[5]
  remaining at 1 h, 1 µM: 99%
[6]
  remaining at 1 h, 1 µM: 27%
[7]
  remaining at 1 h, 1 µM: 61%
[9]
  CC50 at 240 h: 22000 nM
[10]
  remaining at 1 h, 1 µM: 27%
[2]; vero
  pEC50: 8.00
[11]
  remaining at 1 h, 1 µM: 85%
[13]
  EC90: 550 nM
[14]
  selectivity ratio at 240 h: 40
[3]
  Stability: 82%
[12]
  solubility at 2 h: > 20 mg/mL
